Measurements published in ChEMBL document CHEMBL4364277, “Medicinal prospects of antioxidants: A review” (Eur J Med Chem, 2019).

Tests used:
Rattus norvegicus [1] = experiment: Anti-inflammatory activity in rat assessed as inhibition of formalin-induced paw edema administered as po dose pretreated for 1 hr followed by formalin addition measured up to 6 hrs relative to control; type: functional
[2] = Anti glycation activity assessed as inhibition of BSA glycation after 7 days in presence of glucose by spectrofluorimetry assay; type: functional
[3] = Antioxidant activity assessed as DPPH radical scavenging activity after 30 mins; type: functional
[4] = Hemolytic activity in human RBC relative to control; type: cell-based, Erythrocyte; settings: red blood cells (erythrocytes), read-out: Activity
MCF7 = experiment: Cytotoxicity against human MCF7 cells after 48 hrs by MTT assay; type: functional, cell-based; settings: MCF7, 48 h
Rattus norvegicus [5] = experiment: Anti-inflammatory activity in rat assessed as inhibition of formalin-induced paw edema at 20 mg/kg, po pretreated for 1 hr followed by formalin addition measured up to 6 hrs relative to control; type: functional

Q: With `O=c1oc2ccc(Cl)cc2cc1-c1nc2ccccc2[nH]1` as the molecule, how does the “inhibition (INH)” value (Rattus norvegicus [1]) read?
A: 46.75%

Q: For `Oc1ccc(-c2nc3ncc(Cl)cc3[nH]2)c(O)c1`, which IC50 [2] is on record?
A: 240 µM

Q: What about the IC50 [3] of the same molecule?
A: 58.1 µM

Q: Which “inhibition (INH)” value (Rattus norvegicus [1]) does the source give for `O=C(Nc1nc2ccccc2[nH]1)c1cc2ccccc2oc1=O` here?
A: 42.85%

Q: For `O=C(Cc1cc(=O)oc2cc(O)ccc12)Nc1nc2ccccc2o1`, which hemolysis [4] is on record?
A: 92.5%

Q: What does the source list for `Oc1ccc(O)c(-c2nc3ncc(Cl)cc3[nH]2)c1`?
A: IC50 [2]: 240 µM; IC50 [3]: 72.5 µM

Q: Which IC50 (MCF7) does the source give for `Cc1nnc(N2C(=O)CSC2c2ccccc2[N+](=O)[O-])s1` (centres undefined) here?
A: 46.3 µM

Q: Which inhibition in vivo at 20 mg/kg (Rattus norvegicus [5]) does the source give for `COc1ccc2c(c1)c(CC(=O)O)c(C)n2C(=O)c1ccc(Cl)cc1` [INDOMETHACIN] here?
A: 54.5%
